Laboratory results as given in article PMC2812660 (Biochemical and biophysical research communications, 2009).
*1 amine or outer side, *2 acyl side, *3 side chain or, on linkers, in order; H or OH if unused. Where a SMILES comes first, the peptide text is derived from it. The star is where a group is joined. AMC = Cc1cc(=O)oc2cc(N*)ccc12; Suc = O=C(CCC(=O)[*:2])[*:1]

Molecular target: 20S proteasome (Oryctolagus cuniculus, UniProt G1T4Q9)
Experiment: fluorogenic chymotrypsin-like activity assay
Type: biochemical
Conditions: chymotrypsin-like site; control incubation without added SAM/SAH

Cc1cc(=O)oc2cc(NC(=O)[C@H](Cc3ccc(O)cc3)NC(=O)[C@@H](NC(=O)[C@H](CC(C)C)NC(=O)[C@H](CC(C)C)NC(=O)CCC(=O)O)C(C)C)ccc12 [Suc-LLVY-AMC] (Suc-LLVY-{AMC})
fluorogenic chymotrypsin-like activity assay: activity was detected in vitro using the fluorogenic substrate Suc-LLVY-AMC
